Experimental data reported in publication PMC3203990 (The FEBS journal, 2011).

Target: FtCCAP (Francisella tularensis class C acid phosphatase) (Francisella tularensis, UniProt Q5NH51)
Assay: biochemical

Sequence of FtCCAP (Francisella tularensis class C acid phosphatase) (Q5NH51 22-247 limits assumed): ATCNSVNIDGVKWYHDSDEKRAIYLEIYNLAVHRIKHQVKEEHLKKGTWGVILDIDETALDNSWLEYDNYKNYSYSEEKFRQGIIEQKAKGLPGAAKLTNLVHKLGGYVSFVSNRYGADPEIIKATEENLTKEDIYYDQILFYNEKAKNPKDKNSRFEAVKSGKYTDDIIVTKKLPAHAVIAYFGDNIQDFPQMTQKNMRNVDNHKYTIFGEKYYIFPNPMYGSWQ

## Nc1ncnc2c1ncn2[C@@H]1O[C@H](COP(O)(O)=S)[C@@H](O)[C@H]1O [AMPS]
  Ki: 300 ± 30 nM
